Experimental data: ChEMBL document CHEMBL1127476, “3-substituted thieno[2,3-b][1,4]thiazine-6-sulfonamides. A novel class of topically active carbonic anhydrase inhibitors” (J Med Chem, 1994)
≈ marks a conversion by molar mass, not a printed value.

What was measured:
Oryctolagus cuniculus [1] = organism: Oryctolagus cuniculus
Description: Change in intraocular pressure (IOP) was measured in the normotensive pigmented rabbit

[2] = The pKa value in 30% EtOH/H2O; assay type: physicochemical
Oryctolagus cuniculus [3] = organism: Oryctolagus cuniculus; remark: listed apart in the source
Description: Change in intraocular pressure (IOP) was measured in the normotensive pigmented rabbit in presence of MK-927

Oryctolagus cuniculus [4] = organism: Oryctolagus cuniculus; remark: listed apart in the source
Description: Reduction of the elevated intraocular pressure (IOP) in alpha-chymotrypsin treated albino rabbit

Carbonic anhydrase 2 [5] = biological target: T1, Carbonic anhydrase 2 (Homo sapiens, UniProt P00918)
Description: Tested for ability to inhibit human erythrocyte carbonic-anhydrase-II- (HCA II) catalyzed carbon dioxide hydration

physchem = details: pH 5.2 buffer, pH 5.2, Solubility
Carbonic anhydrase 2 [6] = biological target: T1, Carbonic anhydrase 2; remark: listed apart in the source
Description: Tested for ability to compete with dansylamide for binding to human erythrocyte carbonic-anhydrase-II (HCA-II)

[7] = buffer, pH 5.2
Description: Solubility in pH 5.2 buffer

SMILES	pKa [2]	IC50 (Carbonic anhydrase 2 [5]) [nM]	solubility (physchem) [µg/mL]	Ki (Carbonic anhydrase 2 [6]) [nM]	solubility [7] [µg/mL]	Delta IOP (Oryctolagus cuniculus [1]) [mmHg]	Delta IOP (Oryctolagus cuniculus [3]) [mmHg]	Delta IOP (Oryctolagus cuniculus [4]) [mmHg]
COCCN(CCOC)CCC1CNc2cc(S(N)(=O)=O)sc2S1(=O)=O (configuration not stated)	6.4	2.14	> 6700	0.97		-4.1	-5.1	4
COCCOCCN(CCOC)C(=O)CC1C(=O)Nc2cc(S(N)(=O)=O)sc2S1(=O)=O (configuration not stated)		2.18		3.6				
NS(=O)(=O)c1cc2c(s1)SCC(=O)N2		12.8		24				
CC(C)CNC(=O)CC1Sc2sc(S(N)(=O)=O)cc2NC1=O (configuration not stated)	3.65		30 (≈ 0.0825 mM)					
NS(=O)(=O)c1cc2c(s1)SC(CCO)CN2 (configuration not stated)	9.62		640 (≈ 2.28 mM)					
NS(=O)(=O)c1cc2c(s1)S(=O)(=O)C(CCN1CCOCC1)CN2 (configuration not stated)	3.23		2100 (≈ 5.5 mM)			-2.8	-4.4	5
COCCOCCN(CCOC)CCC1C(=O)Nc2cc(S(N)(=O)=O)sc2S1(=O)=O (configuration not stated)		5.15		4.14				
CC(C)CNCCC1CNc2cc(S(N)(=O)=O)sc2S1(=O)=O (configuration not stated)	8.18	2.9	24000 (≈ 65.3 mM)	4.05		-2.1	-6.2	-4.5
CC(C)CN[C@H]1CCS(=O)(=O)c2sc(S(N)(=O)=O)cc21 (stereo in doubt; form 1) [SEZOLAMIDE]					> 16000			
CC(C)CN[C@H]1CCS(=O)(=O)c2sc(S(N)(=O)=O)cc21 (stereo in doubt; form 2) [SEZOLAMIDE]					33000 (≈ 97.5 mM)			

Further lines, with some results ahead:

pKa [2]	IC50 (Carbonic anhydrase 2 [5]) [nM]	solubility (physchem) [µg/mL]	Ki (Carbonic anhydrase 2 [6]) [nM]	solubility [7] [µg/mL]	SMILES	Delta IOP (Oryctolagus cuniculus [1]) [mmHg]	Delta IOP (Oryctolagus cuniculus [3]) [mmHg]	Delta IOP (Oryctolagus cuniculus [4]) [mmHg]
8.45	1.9	4500 (≈ 14.4 mM)	1.19		NS(=O)(=O)c1cc2c(s1)S(=O)(=O)C(CCO)CN2 (configuration not stated)			
8.8	2.46	190 (≈ 0.708 mM)	3.36		NS(=O)(=O)c1cc2c(s1)S(=O)(=O)CCN2			
6.55	1.45	11800 (≈ 25 mM)	4.14		COCCOCCN(CCOC)CCC1CNc2cc(S(N)(=O)=O)sc2S1(=O)=O (configuration not stated)	-1.6	-5.3	6
4.3		2400 (≈ 7.78 mM)	47.5		NS(=O)(=O)c1cc2c(s1)SC(CC(=O)O)C(=O)N2 (configuration not stated)			
8.29	2	520 (≈ 1.77 mM)	10.9		NS(=O)(=O)c1cc2c(s1)S(=O)(=O)C1(CC1)CN2			
7.43	3.7	600 (≈ 2.13 mM)	2.9		NS(=O)(=O)c1cc2c(s1)S(=O)(=O)CC(=O)N2			
